The source of these data is ChEMBL document CHEMBL1128779, “Synthesis of a fluorescent labeled thromboxane A2 receptor antagonist” (Bioorg Med Chem Lett, 1995).

This assay has as its target T1, Thromboxane A2 receptor (Homo sapiens, UniProt P21731).
T1 sequence (P21731 whole entry): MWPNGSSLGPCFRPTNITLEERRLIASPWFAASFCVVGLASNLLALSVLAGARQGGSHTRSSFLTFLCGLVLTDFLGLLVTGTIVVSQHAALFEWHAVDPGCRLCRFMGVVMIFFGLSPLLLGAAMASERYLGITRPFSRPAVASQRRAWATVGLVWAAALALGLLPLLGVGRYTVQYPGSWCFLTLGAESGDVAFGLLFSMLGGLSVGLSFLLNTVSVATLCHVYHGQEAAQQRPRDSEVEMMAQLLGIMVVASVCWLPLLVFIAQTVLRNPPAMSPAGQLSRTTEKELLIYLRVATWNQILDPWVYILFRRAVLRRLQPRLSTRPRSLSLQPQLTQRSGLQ
Description: Binding affinity of Thromboxane A2 (TXA2) receptor using [3H]-SQ 29,548 radioligand in washed human platelets.

`CC1(C)C2CC[C@@H](Cc3cccc4ccc(=O)oc34)C1C2` (some centres not stated) registered a Kd of 424 nM.
As for `CC1(C)C2CC[C@H](Cc3cccc4ccc(=O)oc34)C1C2` (some centres not stated), the Kd worked out at 138 nM.

Broadly, the Kd is the free concentration of one partner at which half of the binding sites on the other are occupied at equilibrium, for simple one-to-one binding.
